The values below come from ChEMBL document CHEMBL4627387, “Cucurbitane-Type Triterpenoids from the Vines of Momordica charantia and Their Anti-inflammatory Activities” (J Nat Prod, 2020).

Active and inactive are the calls of the source. The rule behind the calls is not given here.

Series [1] concerns HepG2. Description: Antiproliferative activity against human HepG2 cells assessed as reduction in cell viability after 48 hrs by alamarBlue assay. Format: functional, cell-based.
Series [2] relates to RAW264.7. Description: Cytotoxicity against mouse RAW264.7 cells assessed as reduction in cell viability after 24 hrs by alamarBlue assay. Format: cell-based. The following applies: RAW264.7, 24 h.
Series [3] concerns Human immunodeficiency virus 1. Put plainly: Antiviral activity against HIV 1 NL4-3 infected in human MT4 cells assessed as reduction in viral replication and measured on day 3 post infection by Nano-glo luciferase reporter gene assay. Format: functional, organism-based.
Series [4] deals with WiDr. Put plainly: Antiproliferative activity against human WiDr cells assessed as reduction in cell viability after 48 hrs by alamarBlue assay. In kind it is functional, cell-based.
A short description of series [5]: Cytotoxicity against mouse RAW264.7 cells assessed as cell viability at 15 ug/ml after 24 hrs by alamarBlue assay relative to control. Format: cell-based. The following applies: read-out: Activity.
Series [6] deals with MCF7. Description: Antiproliferative activity against human MCF7 cells assessed as reduction in cell viability after 48 hrs by alamarBlue assay. Format: functional, cell-based.
Series [7] relates to RAW264.7. Description: Antiinflammatory activity in mouse RAW264.7 cells assessed as inhibition of LPS-induced NO production incubated for 12 hrs by Griess reagent based assay. Format: functional.
Series [8] deals with HEp-2. Put plainly: Antiproliferative activity against human Hep2 cells assessed as reduction in cell viability after 48 hrs by alamarBlue assay. Format: functional, cell-based.

Regarding `COC(=O)CC(=O)O[C@H]1CC[C@@H]2C(=C[C@H](O)[C@@H]3[C@@]2(C=O)CC[C@]2(C)[C@@H]([C@H](C)C/C=C/C(C)(C)O)CC[C@@]32C)C1(C)C`, the outcome in series [1], in series [3], in series [4], in series [6] and in series [8] was inactive. Further, in series [2], the 50% inhibitory concentration (IC50) amounted to 20.3 µM. Besides, the viability at 24 h, 15 ug/ml in series [5] came to 67.6%. In series [7], the “inhibition (INH)” value came to 65.1%.

As for `CO[C@H]1C=C2[C@@H](CC[C@H](OC(=O)CC(=O)O)C2(C)C)[C@]2(C=O)CC[C@]3(C)[C@@H]([C@H](C)C/C=C/C(C)(C)OC)CC[C@@]3(C)[C@H]12`, the result in series [1], in series [3], in series [4], in series [6] and in series [8] was inactive. In addition, the half-maximal inhibitory concentration (IC50) in series [2] is 22.1 µM. The viability at 24 h, 15 ug/ml in series [5] worked out at 72.4%. Further, the “inhibition (INH)” value in series [7] is 56.5%.

As to `CO[C@H]1O[C@]23C=C[C@@H]4[C@@]1(CC[C@]1(C)[C@@H]([C@H](C)C/C=C/C(C)(C)O)CC[C@@]41C)[C@@H]2CC[C@H](OC(=O)CC(=O)O)C3(C)C`, the result in series [1], in series [4], in series [6] and in series [8] was inactive. For the same compound, the 50% inhibitory concentration (IC50) in series [2] was determined as 11.3 µM. The viability at 24 h, 15 ug/ml in series [5] was determined as 59.6%. The “inhibition (INH)” value in series [7] is reported as 66.1%.

Turning to `C/C=C/C(=O)O[C@H]1CC[C@@H]2C(=C[C@H](O)[C@@H]3[C@@]2(C=O)CC[C@]2(C)[C@@H]([C@H](C)C/C=C/C(C)(C)O)CC[C@@]32C)C1(C)C`, the outcome in series [1], in series [4], in series [6] and in series [8] was inactive. Also, the IC50 in series [2] was found to be 19.1 µM. Moreover, the viability at 24 h, 15 ug/ml in series [5] was determined as 94.7%. Also, in series [7], the “inhibition (INH)” value was determined as 73.3%.

For `CO[C@@H](C=C(C)C)C[C@@H](C)[C@H]1CC[C@@]2(C)[C@@H]3[C@@H](O)C=C4[C@@H](CC[C@H](OC(=O)CC(=O)O)C4(C)C)[C@]3(C=O)CC[C@]12C`, the result in series [1], in series [3], in series [4], in series [6] and in series [8] was inactive. Moreover, the IC50 in series [2] turned out to be 16.1 µM. Besides, the viability at 24 h, 15 ug/ml in series [5] amounted to 61.9%. Moreover, the “inhibition (INH)” value in series [7] amounted to 68.8%.

Take `COC(=O)CC(=O)O[C@H]1CC[C@@H]2C(=C[C@H](O)[C@@H]3[C@@]2(C=O)CC[C@]2(C)[C@@H]([C@H](C)C/C=C/C(C)(C)OC)CC[C@@]32C)C1(C)C`: the outcome in series [1], in series [3], in series [4], in series [6] and in series [8] was inactive. In series [2], the IC50 came out at 15.6 µM. Besides, in series [5], the viability at 24 h, 15 ug/ml was found to be 69%. Besides, the “inhibition (INH)” value in series [7] was found to be 64.3%.

Consider `C[C@H](C/C=C/C(C)(C)O)[C@H]1CC[C@@]2(C)[C@@H]3[C@@H](O)C=C4[C@@H](CC[C@H](OC(=O)CC(=O)O)C4(C)C)[C@]3(C=O)CC[C@]12C`, for which the result in series [1], in series [4], in series [6] and in series [8] was inactive. Further, the IC50 in series [2] turned out to be 16 µM. Further, the viability at 24 h, 15 ug/ml in series [5] came out at 53.8%. Besides, the “inhibition (INH)” value in series [7] is recorded as 77%.

`CO[C@H]1C=C2[C@@H](CC[C@H](O)C2(C)C)[C@]2(C=O)CC[C@]3(C)[C@@H]([C@H](C)C/C=C/C(C)(C)OC)CC[C@@]3(C)[C@H]12`: the outcome in series [1], in series [4], in series [6] and in series [8] was inactive. In addition, the IC50 in series [2] turned out to be 35.6 µM. Moreover, in series [5], the viability at 24 h, 15 ug/ml was determined as 90.5%. For the same compound, the “inhibition (INH)” value in series [7] was 35%.

For `CO[C@H]1C=C2[C@@H](CC[C@H](OC(=O)CC(=O)O)C2(C)C)[C@]2(C=O)CC[C@]3(C)[C@@H]([C@H](C)C/C=C/C(C)(C)O)CC[C@@]3(C)[C@H]12`, the result in series [1], in series [4], in series [6] and in series [8] was inactive. For the same compound, in series [2], the IC50 was found to be 24.4 µM. In addition, the viability at 24 h, 15 ug/ml in series [5] was determined as 125%. For the same compound, the “inhibition (INH)” value in series [7] is given as 51.2%.

`COC(C)(C)/C=C/C[C@@H](C)[C@H]1CC[C@@]2(C)[C@@H]3[C@@H](O)C=C4[C@@H](CC[C@H](OC(=O)CC(=O)O)C4(C)C)[C@]3(C=O)CC[C@]12C`: the outcome in series [3] was inactive.

As for `CO[C@@H]1O[C@]23C=C[C@@H]4[C@@]1(CC[C@]1(C)[C@@H]([C@H](C)C/C=C/C(C)(C)O)CC[C@@]41C)[C@@H]2CC[C@H](OC(=O)CC(=O)O)C3(C)C`, the result in series [1], in series [4], in series [6] and in series [8] was inactive. For the same compound, in series [2], the IC50 is 29.1 µM. In series [5], the viability at 24 h, 15 ug/ml stood at 113%. Further, the “inhibition (INH)” value in series [7] is listed as 42.6%.

Turning to `O=c1c(O)c(-c2ccc(O)c(O)c2)oc2cc(O)cc(O)c12` [QUERCETIN], in series [2], the IC50 was 4.2 µM. In series [5], the viability at 24 h, 15 ug/ml is 142%. For the same compound, the “inhibition (INH)” value in series [7] is listed as 88.9%.

As for `CCOC(C)(C)/C=C/C[C@@H](C)[C@H]1CC[C@@]2(C)[C@@H]3[C@@H](O)C=C4[C@@H](CC[C@H](OC(=O)CC(=O)O)C4(C)C)[C@]3(C=O)CC[C@]12C`, the result in series [1], in series [4], in series [6] and in series [8] was inactive. In series [2], the IC50 is 24 µM. For the same compound, in series [5], the viability at 24 h, 15 ug/ml came to 89.7%. The “inhibition (INH)” value in series [7] worked out at 50.4%.
